Results taken from publication PMC6330446, “An integrated characterization of contractile, electrophysiological, and structural cardiotoxicity of Sophora tonkinensis Gapnep. in human pluripotent stem cell-derived cardiomyocytes” (Stem Cell Research & Therapy, 2019).
Entries after “also recorded” stand apart in the source; their conditions may differ.

Tests used:
hiPSC-CMs [1] = conditions: hiPSC-CMs; alkaloids 2, 10, 50 μM, aconitine 1 μM; 24 h
Procedure: (§1) After plating for about 3 days, CMs matured and began to beat. At this time, different compounds were added, and experiments were performed 24 h after treatment. The experiments were grouped as follows: control group (normal medium); matrine, oxymatrine, sophocarpine, and cytisine treatment (2, 10, 50 μM) groups; and aconitine treatment (1 μM) group. The doses of toxicity studies above were determined by the effective therapeutic doses reported and included or exceeded the therapeutic dose.
CMs were incubated in 10% CCK-8 (Dojindo, Kumamoto, Japan) that was diluted in normal culture medium at 37 °C until a visual color conversion occurred. The absorbance of each well was measured using a microplate reader (Spectrafluor, TECAN, Sunrise, Austria) at 450 nm. Three individual experiments were performed. All samples were operated in duplicate.
A 96-well plate was used to seed hiPSC-CMs at a concentration of 5 × 10^4 cells per well. The cultured cells were treated with different concentrations of compounds and were incubated for another 48 h. CMs were digested with trypsin, and a small amount of cell suspension was added into the same amount of trypan blue solution. Countstar Automated Cell Counter IC1000 (Elite Life Sciences, Shanghai, China) was used to count the number of total and living cells. Data were presented as the mean ± SEM, n ≥ 3.

hiPSC-CMs [2] = conditions: hiPSC-CMs; alkaloids 2, 10, 50 μM, aconitine 1 μM
Procedure: as §1
Cell treatment method was the same as above. After reaching the predetermined time, 120 μl of the supernatant of each well was taken for measuring LDH leakage using a commercially available kit (Beyotime Biotechnology, Shanghai, China) following the manufacturer’s instructions. Data were presented as the mean ± SEM, n ≥ 3.

hiPSC-CMs [3] = assay: CK-MB and cardiac troponin I ELISA assay; format: cell-based, human; conditions: alkaloids 2, 10, 50 μM, aconitine 1 μM
Procedure: as §1
Cell treatment method was the same as above. After the administration, the cells were digested and then destroyed by repeated freeze-thaw and sonication to release the components in the cells. Centrifuged at 2500 rpm for 20 min, the supernatant was collected for the detection of creatine kinase MB isoenzyme (CK-MB) and cardiac troponin I (CTn-I) ELISA kit (Expandbiotech, Beijing, China) following the manufacturer’s instructions. Data were presented as the mean ± SEM, n ≥ 3.

hiPSC-CMs [4] = format: cell-based, human; conditions: hiPSC-CMs; high dose of alkaloids (50 μM), aconitine 1 μM
Procedure: Cells were incubated in a maintaining medium containing 10 μM DCFH-DA (Beyotime Biotechnology, Shanghai, China) for 30 min at 37 °C in the dark. The measurement of ROS was performed with IncuCyte™ S3 ZOOM cell imaging system (Essen BioScience, Ann Arbor, MI). TissueQuest 6.0 was used for the quantitative analysis of ROS formation. Data were presented as the mean ± SEM, n ≥ 3.

GCaMP hESC-CMs = format: cell-based, human; conditions: GCaMP hESC-CMs; high dose of alkaloids (50 μM), aconitine 1 μM
Procedure: The hESC-CMs in this experiment can express the GCaMP reporter gene by gene editing, and green fluorescence marker can be observed by a fluorescence microscope. The fluorescence intensity is proportional to Ca^2+ concentration. The CMs were seeded into 96-well plates at 5000/well and were administered the same as above. The fluorescence intensities of hESC-CMs were monitored using an IncuCyte™ S3 ZOOM cell imaging system (Essen BioScience, Ann Arbor, MI). Data were presented as the mean ± SEM, n ≥ 3.

hiPSC-CMs [5] = assay: TUNEL staining (apoptosis); format: cell-based, human; conditions: high dose of alkaloids, aconitine
Procedure: Supplementary file 13287_2018_1126_MOESM1_ESM.tif: Additional file 1: Figure S1. Effect of matrine, oxymatrine, cytisine, and sophocarpine on TUNEL staining in hiPSC-CMs. After treatment with matrine, oxymatrine, cytisine, and sophocarpine, the images of TUNEL fluorescence and bright field were acquired intuitively using IncuCyte™ S3 ZOOM cell imaging system and the fluorescence intensity was analyzed quantitatively using TissueQuest 6.0. […] The scale bar is 400 μm. Data are presented as the mean ± SEM, n ≥ 3. […] vs the control group. (TIF 23588 kb)

Structure (SMILES): CCN1C[C@]2(COC)[C@H](O)C[C@H](OC)[C@@]34[C@@H]5C[C@@]6(O)[C@H](OC(=O)c7ccccc7)[C@@H]5[C@@](OC(C)=O)([C@@H]([C@H](OC)[C@H]23)[C@@H]14)[C@@H](O)[C@@H]6OC [aconitine, reference compound]
- Cell viability (in words) (hiPSC-CMs [1]): showed a great significance
- LDH level in the supernatant (in words) (hiPSC-CMs [2]): induced a large amount; also recorded: increased immensely
- CK-MB level (in words) (hiPSC-CMs [3]): induced a large amount; also recorded: increased immensely
- CTnI level (in words) (hiPSC-CMs [3]): induced a large amount
- ROS fluorescence / ROS production (in words) (hiPSC-CMs [4]): induced excessive ROS production
- Fluorescence intensity of calcium, [Ca^2+]i (in words) (GCaMP hESC-CMs): increased drastically
- TUNEL fluorescence staining (in words) (hiPSC-CMs [5]): huge increase
